Data: patent US5849782A, “Methods of inhibiting neurodegenerative diseases” (The General Hospital Corporation, priority 1996, dated 1998)

Legend:
Male Sprague-Dawley rats [1] = test: Striatal lesions produced by intrastriatal malonate (TTC staining); format: in vivo, rat; settings: 7-NI 25 and 50 mg/kg i.p. 0.5 h before malonate
Description: Stereotaxic Lesion Technique. Male Sprague-Dawley rats (Charles River, Cambridge, Mass.) weighing 300-325 g were anesthetized with pentobarbital (50 mg/kg i.p.) and positioned in a David Kopf stereotaxic instrument with the incisor bar set at 3.3 mm below the intermural line. Malonate, NMDA, KA, and AMPA were dissolved in 0.1M phosphate-buffered saline (pH, 7.4). Intrastriatal injections were made with a 10 μl Hamilton syringe fitted with a 30 gauge blunt-tipped needle into the left striatum at the coordinates 0.5 mm anterior bregma, 2.6 mm lateral to the midline and 5 mm ventral to the dura. Injection volumes were 1 μl (3 μmol malonate). […]
Quantification of Lesion Volume. […] (Bederson et al. (1986) Stroke 17:1304-1308.) The lesioned area (noted by pale staining) was measured on the posterior surface of each section using an Apple Macintosh.COPYRGT. based image analysis system (Sony color video camera, Software: ColorSnap.COPYRGT. (Computer Friends Inc., Portland, Oreg.) and IPLab Spectrum.COPYRGT. (Signal Analytics, Vienna, Va.)). The lesions were evaluated by an experienced histologist, who verified the reliability of the TTC measurements in animals injected with malonate on adjacent sections stained with either TTC or Nissl stain (Schulz et al. (1995) J. Neurochem 64:in press).

dopamine transporter = dopamine transporter (Mus musculus, UniProt Q61327); settings: at 1, 10 and 100 μM; 0.13 μM [3H]-dopamine
Chain of dopamine transporter (Q61327 whole entry): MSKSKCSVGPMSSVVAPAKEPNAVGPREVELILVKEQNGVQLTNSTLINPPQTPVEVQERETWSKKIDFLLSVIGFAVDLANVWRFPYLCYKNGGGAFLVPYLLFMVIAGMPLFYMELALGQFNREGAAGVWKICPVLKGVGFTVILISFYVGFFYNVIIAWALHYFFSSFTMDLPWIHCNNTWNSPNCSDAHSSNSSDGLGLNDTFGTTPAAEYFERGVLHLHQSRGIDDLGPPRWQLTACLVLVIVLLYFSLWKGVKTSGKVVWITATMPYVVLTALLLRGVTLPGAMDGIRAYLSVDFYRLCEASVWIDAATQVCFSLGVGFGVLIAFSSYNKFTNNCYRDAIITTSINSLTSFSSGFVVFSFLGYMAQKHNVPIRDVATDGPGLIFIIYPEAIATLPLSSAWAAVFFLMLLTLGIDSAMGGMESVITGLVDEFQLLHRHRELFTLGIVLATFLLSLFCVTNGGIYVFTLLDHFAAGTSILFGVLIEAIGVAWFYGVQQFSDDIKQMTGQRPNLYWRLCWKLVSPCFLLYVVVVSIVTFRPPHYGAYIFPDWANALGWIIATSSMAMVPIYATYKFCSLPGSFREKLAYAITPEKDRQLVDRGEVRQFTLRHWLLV

Male Sprague-Dawley rats [2] = test: Striatal lesions produced by intrastriatal NMDA, AMPA, KA (TTC staining); format: in vivo, rat
Description: Stereotaxic Lesion Technique. Male Sprague-Dawley rats (Charles River, Cambridge, Mass.) weighing 300-325 g were anesthetized with pentobarbital (50 mg/kg i.p.) and positioned in a David Kopf stereotaxic instrument with the incisor bar set at 3.3 mm below the intermural line. Malonate, NMDA, KA, and AMPA were dissolved in 0.1M phosphate-buffered saline (pH, 7.4). Intrastriatal injections were made with a 10 μl Hamilton syringe fitted with a 30 gauge blunt-tipped needle into the left striatum at the coordinates 0.5 mm anterior bregma, 2.6 mm lateral to the midline and 5 mm ventral to the dura. Injection volumes were 1 μl (3 μmol malonate). All injections were made over 1 min and the needle was left in place for an additional 1 min before being slowly withdrawn. 7-NI was dissolved and sonicated in peanut oil at a concentration of 10 mg/ml. 50 mg/kg of 7-NI were administered i.p. 30 min before striatal injections of malonate, NMDA, KA and AMPA. […] Nine to ten animals were used per group in each experiment.
Quantification of Lesion Volume. One week after the striatal injections, animals were sacrificed by decapitation and the brains were rapidly removed, placed in cold saline for 10 min, and sectioned coronally into slices at 2 mm intervals. Slices were stained in 2% 2,3,5-triphenyltetrazolium chloride monohydrate (TTC) (Sigma, St. Louis, Mo.) solution at room temperature in the dark for 30 min followed by fixation in phosphate-buffered 4% paraformaldehyde. (Bederson et al. (1986) Stroke 17:1304-1308.) The lesioned area (noted by pale staining) was measured on the posterior surface of each section using an Apple Macintosh.COPYRGT. based image analysis system (Sony color video camera, Software: ColorSnap.COPYRGT. (Computer Friends Inc., Portland, Oreg.) and IPLab Spectrum.COPYRGT. (Signal Analytics, Vienna, Va.)). The lesions were evaluated by an experienced histologist, who verified the reliability of the TTC measurements in animals injected with malonate on adjacent sections stained with either TTC or Nissl stain (Schulz et al. (1995) J. Neurochem 64:in press).

[3] = Babbedge et al. 1993; Moore et al. 1993; cited from earlier work
rats = test: Striatal ATP after intrastriatal malonate (luciferin-luciferase); format: in vivo, rat; settings: 7-NI 50 mg/kg; 3 μmol malonate; measured 1.5 h after injection
Description: ATP Measurements. The effects of 7-NI on malonate-induced decreases in striatal ATP concentrations were examined. 50 mg/kg of 7-NI dissolved in peanut oil or peanut oil vehicle were administered i.p. 0.5 h before intrastriatal injection of 3 μmol malonate. […] After decapitation the heads were rapidly frozen in liquid nitrogen and subsequently stored at -70° C. The striata were dissected from a 2 mm slice frontal and adjacent to the anterior commissure on a freezing cold plate. The corpus callosum, the septal complex, and the anterior commissure were used as dorsal and lateral, medial, and ventral boundaries. ATP was measured by the luciferin-luciferase assay (Lust et al. (1981) Anal. Biochem. 110-258-266). Proteins were measured on the pellets using a fluorimetric assay. Eight animals per group were examined.

mice = test: Rectal temperature in mice; settings: 7-NI 50 mg/kg
Description: To exclude the possibility that hypothermia may contribute to the protection, we maintained body temperature at 37.5° C. in controls, mice treated with four doses of MPTP at 20 mg/kg, and mice additionally treated with 7-NI (n=6 per group).

[4] = Yoshida et al. 1994; cited from earlier work
Male Swiss-Webster mice [5] = test: 3-nitrotyrosine to tyrosine ratio in mouse striatum after MPTP; format: in vivo; settings: MPTP 20 mg/kg x4; 7-NI 25 or 50 mg/kg
Description: (§1) Dopamine, 3,4-dihydroxyphenlyacetic acid (DOPAC), homovanillic acid (HVA), p-tyrosine, and 3-nitrotyrosine were quantified by HPLC with 16-electrode electrochemical detection (Beal et al. (1990) supra) and are expressed as ng/mg protein (mean±SEM) (FIG. 1). 3-Nitrotyrosine data are expressed as ratios of 3-nitrotyrosine to p-tyrosine to normalize for differing brain concentrations of tyrosine. The statistical significance of differences was determined via one-way ANOVA followed by Fisher PLSD post hoc test to compare group means. All animal use procedures were in strict accordance with the NIH Guide for the Care and Use of Laboratory Animals and were approved by the local Animal Care Committee.
Role of Peroxynitrite in MPTP. To determine whether peroxynitrite plays a role in MPTP neurotoxicity, we therefore measured the ratio of 3-nitrotyrosine to tyrosine in mouse striatum following administration of MPTP.

Male Swiss-Webster mice [6] = test: MPTP-induced neurotoxicity in mice: striatal dopamine, DOPAC, HVA; format: in vivo, mouse; settings: at 1 week
Description: Methods. Male Swiss-Webster mice (30-35 g:Taconic Farms, Germantown, N.Y., U.S.A.) were treated with either normal saline or MPTP hydrochloride (Research Biochemicals, Natick, Mass., U.S.A.). MPTP was administered in 0.1 ml of water at a dose of 10 mg/kg i.p. at 2-h intervals for six doses or 20 mg/kg i.p. at 2-h intervals for four doses. 7-NI (Cookson Chemical Ltd., Southhampton, U.K.) was dissolved in peanut oil (Sigma, St. Louis, Mo., U.S.A.) at a concentration of 5 mg/ml. Mice received doses of 25 or 50 mg/kg per subcutaneous injection. MPTP-treated animals were treated with peanut oil or 7-NI 12 h before the first, at every MPTP injection, and every 8 h for 48 h after MPTP injections. Eleven to 12 animals were used in each group. Animals were killed at 1 week. The two striata were rapidly dissected and placed in chilled 0.1M perchloric acid. Tissue was subsequently sonicated, and aliquots were taken for protein quantification using a fluorometric assay (Beal et al., 1990) J. Neurochem. 55:1327-1339).
as §1

[7] = 2 doses of 50 mg/kg 7-NI 4 h and 0.5 h before striatal injection

O=[N+]([O-])c1cccc2cn[nH]c12 [7-NI, 7-nitroindazole]
striatal lesion produced by 3 μmol malonate (Male Sprague-Dawley rats [1]): significantly and dose dependently attenuated
inhibition of [3H]dopamine uptake into synaptosomes (dopamine transporter): did not inhibit
protection against lesions produced by 5 nmol KA (Male Sprague-Dawley rats [2]; [7]): no protection
protection against lesions produced by 30 nmol AMPA (Male Sprague-Dawley rats [2]; [7]): no protection
protection against lesions produced by 200 nmol NMDA (Male Sprague-Dawley rats [2]; [7]): 35%
striatal lesion volume, 200 nmol NMDA (Male Sprague-Dawley rats [2]; single dose 7-NI 50 mg/kg i.p. before striatal injection, vehicle 25.0±2.4): 21.3±3.4 mm^3
striatal lesion volume, 30 nmol AMPA (Male Sprague-Dawley rats [2]; single dose 7-NI 50 mg/kg i.p. before striatal injection, vehicle 33.6±4.6): 30.4±5.2 mm^3
striatal lesion volume, 5 nmol KA (Male Sprague-Dawley rats [2]; single dose 7-NI 50 mg/kg i.p. before striatal injection, vehicle 39.5±2.9): 36.3±4.4 mm^3
effect on blood pressure in vivo [3]: no effect
malonate-induced decreases of striatal ATP concentrations (rats): significantly attenuated
decrease in rectal temperature vs peanut oil controls (mice; 0.5 h after injection, p=0.03): 0.6 °C
rectal temperature (mice; 0.5 h after injection, peanut oil controls 36.8±0.2): 36.2±0.1 °C
change in rectal temperature vs peanut oil controls (mice; 1 h after injection): no significant decrease
efficacy against focal ischemic lesions in vivo [4]: efficacious
MPTP-induced increase of 3-nitrotyrosine to tyrosine ratio in striatum (Male Swiss-Webster mice [5]): significantly attenuated
striatal dopamine, % of control values (Male Swiss-Webster mice [6]; MPTP 10 mg/kg i.p. x6 at 2-h intervals, 7-NI 50 mg/kg s.c.): 92 % of control values
protection against MPTP-induced depletions of dopamine, HVA and DOPAC (Male Swiss-Webster mice [6]; MPTP 20 mg/kg i.p. x4, 7-NI 50 mg/kg): almost complete protection
